Experimental data published in patent US11833137B2, “Substituted chromenones, IRE1 inhibitors, and methods of using same” (The Wistar Institute, priority 2018, dated 2023).

What was measured:
WaC3 cells = conditions: cited from earlier work
5TGM1 cells = experiment: Cell proliferation XTT assay, 5TGM1; assay type: cell-based, mouse; conditions: 20 μM for a course of 3 days
How it was run: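 In phenol red-free RPMI, 5TGM1 cells were treated with IRE1 inhibitors at 20 μM unless indicated otherwise. At indicated time points, proliferation was read by XTT after 4 h incubation, with formazan absorbance measured at 492 nm.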

[1] = tested on: Arg-1 in CD11b+/Ly6G+ granulocytic MDSCs; experiment: Arg-1 expression in granulocytic MDSCs of treated mice; assay type: in vivo, mouse; conditions: spleens of injected MD4+/−/Eμ-TCL1+/+ mice
secretory IgM, B cells = conditions: cited from earlier work
CLL = conditions: mouse, in vivo; cited from earlier work
CLL cells in PBMCs = experiment: CLL burden in B-I09-injected MD4+/−/Eμ-TCL1+/+ mice; assay type: in vivo, mouse; conditions: 50 mg/kg intraperitoneally, days 1-5 and 8-12
Description: FIGS. 24A-24J illustrate the finding that targeting XBP-1s in CLL cells of MD4^+/−/Eμ-TCL1^+/+ mice leads to reduced production of sIgM, and decreased numbers and function of granulocytic MDSCs. (FIG. 24A) The levels of IgM in the sera of MD4^+/−/Eμ-TCL1^+/+ and XBP-1^KO/MD4^+/−/Eμ-TCL1^+/+ mice were determined by ELISA. (FIG. 24B) Blood cells collected from MD4^+/−/Eμ-TCL1^+/+ and XBP-1^KO/MD4^+/−/Eμ-TCL1^+/+ mice were treated with RBC lysis buffer, and stained with CD11c-BV421, CD11b-PE, Ly6C-Alexa 488 and Ly6G-Alexa 647. Gated CD11c−/CD11b+ populations were analyzed for Ly6C^intermediate/Ly6G+ granulocytic MDSCs and Ly6C+/Ly6G− monocytic MDSCs. […] Gated CD11b+/Ly6C^intermediate/Ly6G+ granulocytic MDSCs were analyzed for the expression of Arg-1. (FIG. 24F) Mean fluorescence intensity (MFI) of Arg-1 in gated CD11b+/Ly6C^intermediate/Ly6G+ granulocytic MDSCs from spleens of 5 MD4^+/−/Eμ-TCL1^+/+ and 5 XBP-1^KO/MD4^+/−/Eμ-TCL1^+/+ mice was plotted as mean±SEM. […] The ^3H-thymidine uptake was measured, and the percentages of proliferation were calculated by comparing to the positive control and plotted as mean±SEM. […] The percentage of CLL cells in PBMCs for each mouse was determined by flow cytofluorometry on day 6 and day 13, and compared with the CLL burden data of the mouse on day 0 (100%). […]

For `O=c1oc2c(C3OCCCO3)c(O)ccc2c2c1CNCC2` [Compound 4, 7-(1,3-dioxan-2-yl)-8-hydroxy-1,2,3,4-tetrahydro-5H-chromeno[3,4-c]pyridin-5-one], the “sensitivity of WaC3 cells” value (WaC3 cells) is given as “sensitive”, the “growth inhibition / cytotoxicity (XTT)” value (5TGM1 cells) is given as “more potent than their respective aldehyde counterparts” and the “Arg-1 levels in granulocytic MDSCs versus DMSO-injected mice” value [1] is given as “expressed decreased levels of Arg-1”. For the same molecule, the “production of sIgM by treated B cells” value (secretory IgM, B cells) was “inefficient in producing sIgM”, the “growth of CLL” value (CLL) was “retard the growth of CLL” and the “CLL burden in peripheral blood” value (CLL cells in PBMCs) was “leukemic regression was observed”.
